Entries after “also recorded” stand apart in the source; their conditions may differ.
How the values were obtained:
[1] = influencing factors test: higher temperature stability; format: physicochemical; conditions: higher temperature (45° C.), listed as I-D1-6 raw materials
Excerpt: (§1) The appearance, number of impurity and the amount of impurity (measured by HPLC) are compared with that of day 0.

[2] = system: SD rats (type 2 diabetes model); experiment: model for rat urine glucose excretion (glucose-oxidase method); format: in vivo
Experimental: The health SD rats are injected intraperitoneally with multiple low doses of streptozotocin for modeling (type 2 diabetes model) after feeding with high-fat and high-sucrose diet, and the content of blood glucose is measured before and after modeling. After the modeling successful, the rats for modeling are randomly divided (8 rats/group) into one blank group (administering the same volume of 0.5% CMC sodium solution) and several groups for compounds to be tested (6 mg/kg) according to the content of 24-hour urine glucose and the body weight. Rats in each group are fasted for 16 hours before experiment. The experimental rats are administered intragastrically with glucose (2 g/kg) at 0.5 h after intragastrical administration with compounds to be tested. The urine is collected at the time-period of 0-12 h after administration, and the urine glucose values are measured at each time-period by glucose-oxidase method.
The inhibiting activity of the cocrystal of I-D1-6 and L-proline on SGLT2 is measured by the model for rat urine glucose excretion.
The health SD rats are injected intraperitoneally with multiple low doses of streptozotocin for modeling (type 2 diabetes model) after feeding with high-fat and high-sucrose diet for one month, and the content of blood glucose is measured before and after modeling. After the modeling successful, the rats for modeling are randomly divided (8 rats/group) into one blank group (administering the same volume of 0.5% CMC sodium solution) and groups of tested compound (6 mg/kg) according to the content of 24-hour urine glucose and the body weight. Rats in each group are fasted for 16 hours before experiment. The experimental rats are administered intragastrically with the glucose (2 g/kg) at 0.5 h after intragastrical administration with the cocrystal of I-D1-6 and L-proline prepared in Example 138. The urine is collected at the time-period of 0-12 h after administration, and the urine glucose values are measured at each time-period by glucose-oxidase method.

hSGLT2 = hSGLT2 (Homo sapiens (Human), UniProt P31639); experiment: IC50 of inhibition on SGLT2; format: cell-based; conditions: for IC50 / Seletivity IC50 (hSGLT1)/IC50 (hSGLT2): Table 3
hSGLT2, sequence (P31639 whole entry): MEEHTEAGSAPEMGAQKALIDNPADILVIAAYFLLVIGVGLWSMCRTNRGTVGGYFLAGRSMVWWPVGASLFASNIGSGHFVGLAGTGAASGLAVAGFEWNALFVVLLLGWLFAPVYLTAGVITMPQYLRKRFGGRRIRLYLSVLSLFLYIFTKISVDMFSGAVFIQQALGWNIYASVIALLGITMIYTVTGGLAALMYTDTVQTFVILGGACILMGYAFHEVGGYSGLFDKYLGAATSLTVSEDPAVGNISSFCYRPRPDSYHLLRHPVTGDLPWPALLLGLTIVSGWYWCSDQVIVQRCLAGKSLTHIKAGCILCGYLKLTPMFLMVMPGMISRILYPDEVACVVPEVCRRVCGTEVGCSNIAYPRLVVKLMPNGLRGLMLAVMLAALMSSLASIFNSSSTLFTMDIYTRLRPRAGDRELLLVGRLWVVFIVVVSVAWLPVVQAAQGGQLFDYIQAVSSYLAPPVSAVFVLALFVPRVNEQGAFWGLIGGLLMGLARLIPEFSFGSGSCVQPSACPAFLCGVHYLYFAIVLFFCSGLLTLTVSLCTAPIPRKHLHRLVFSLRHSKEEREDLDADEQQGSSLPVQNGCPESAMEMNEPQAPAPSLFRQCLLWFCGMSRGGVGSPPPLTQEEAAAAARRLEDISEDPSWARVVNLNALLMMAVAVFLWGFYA

[3] = influencing factors test: higher humidity stability; format: physicochemical
Excerpt: as §1

hSGLT1 = hSGLT1 (Homo sapiens (Human), UniProt P13866); experiment: IC50 of inhibition on SGLT1; format: cell-based; conditions: for IC50: Table 3
hSGLT1, sequence (P13866 whole entry): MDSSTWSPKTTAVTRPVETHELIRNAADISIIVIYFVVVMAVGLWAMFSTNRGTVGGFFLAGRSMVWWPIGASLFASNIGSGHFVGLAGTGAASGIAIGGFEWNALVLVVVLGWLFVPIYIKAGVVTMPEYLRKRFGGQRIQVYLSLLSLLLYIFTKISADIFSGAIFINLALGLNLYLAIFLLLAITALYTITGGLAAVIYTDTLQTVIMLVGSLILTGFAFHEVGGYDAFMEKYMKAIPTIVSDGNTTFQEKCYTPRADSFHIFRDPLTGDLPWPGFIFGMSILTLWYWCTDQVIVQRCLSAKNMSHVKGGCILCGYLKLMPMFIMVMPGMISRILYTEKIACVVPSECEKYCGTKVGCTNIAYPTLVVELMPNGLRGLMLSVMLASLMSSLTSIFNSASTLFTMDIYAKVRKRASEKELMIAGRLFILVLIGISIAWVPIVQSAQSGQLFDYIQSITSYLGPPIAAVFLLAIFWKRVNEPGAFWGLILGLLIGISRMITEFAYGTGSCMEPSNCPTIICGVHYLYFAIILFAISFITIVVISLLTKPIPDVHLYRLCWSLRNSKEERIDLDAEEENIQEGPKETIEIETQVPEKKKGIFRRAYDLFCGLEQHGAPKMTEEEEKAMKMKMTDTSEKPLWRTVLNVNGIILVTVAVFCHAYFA

[4] = influencing factors test: light stability; format: physicochemical; conditions: for Appearance / Number of impurity / Total amount of impurity (%): listed as I-D1-6 raw materials; for storage stability (in words): two-week stability test under light, higher temperature, higher humidity
Excerpt: as §1

Mice = conditions: mice, 10 mice/group, single intragastric dose 750 mg/kg, within one week
Experimental: Mice (18-20 g) with equal numbers of male and female are divided into groups (10 mice/group), after normal feeding for 3 days, fasted for 12 hours, and then administered intragastrically with a single dose of 750 mg/kg compound respectively.

[5] = higher humidity, day 0, HPLC, listed as I-D1-6 raw materials
[6] = higher humidity, day 7, HPLC, listed as I-D1-6 raw materials
[7] = higher humidity, day 14, HPLC, listed as I-D1-6 raw materials
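Throughout, for Behaviors after administration with the compound to be tested (deaths): mice weighing 18–20 g, both sexes in equal proportion within each group.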

## CCOc1ccc(Cc2cc(C3OC(C)C(O)C(O)C3O)ccc2Cl)cc1 [I-D1-6, (1S)-1-[4-chloro-3-(4-ethoxybenzyl)phenyl]-1,6-dideoxy-D-glucose]
[1]; day 0, HPLC
  Number of impurity: 7
  Total amount of impurity (%): 0.89%
[1]; day 0
  Appearance: white,
[1]; day 7, HPLC
  Number of impurity: 8
  Total amount of impurity (%): 0.97%
[1]; day 7
  Appearance: white,
[1]; day 14, HPLC
  Number of impurity: 9
  Total amount of impurity (%): 1.13%
[1]; day 14
  Appearance: white,
[2]; comparison in words, rat urine glucose excretion model, 6 mg/kg
  urine glucose excretion effect (in words): stronger urine glucose excretion effect
hSGLT2; in words
  inhibition to SGLT2 (in words): inhibitory effect on SGLT2 enzyme; also recorded: much stronger inhibition to SGLT2
  selectivity on SGLT1/SGLT2 (in words): much better selectivity on SGLT1/SGLT2
[3]; higher humidity (30% relative humidity at 30° C.), day 0, listed as I-D1-6 raw materials
  Appearance: white,
[3]; [5]
  Number of impurity: 7
  Total amount of impurity (%): 0.89%
[3]; higher humidity, day 7
  Appearance: white
[3]; [6]
  Number of impurity: 7
  Total amount of impurity (%): 0.93%
[3]; higher humidity, day 14
  Appearance: white
[3]; [7]
  Number of impurity: 8
  Total amount of impurity (%): 1.08%
hSGLT1; in words
  inhibition to SGLT1 (in words): much less inhibition to SGLT1
[4]; light (natural daylight, about 80000 Lx), day 0
  Appearance: a white,
[4]; light, day 0, HPLC
  Number of impurity: 7
  Total amount of impurity (%): 0.89%
[4]; light, day 7, HPLC
  Number of impurity: 7
  Total amount of impurity (%): 0.93%
[4]; light, day 7
  Appearance: a white,
[4]; light, day 14, HPLC
  Number of impurity: 7
  Total amount of impurity (%): 0.96%
[4]; light, day 14
  Appearance: a white,

## CCOc1ccc(Cc2cc(C3OC(C)C(O)C(O)C3O)ccc2C)cc1 (stereo not drawn) [drawing 310]
hSGLT2
  IC50: 7.8 nM
  Seletivity IC50 (hSGLT1)/IC50 (hSGLT2): 24
hSGLT1
  IC50: 187 nM

## CCOc1ccc(Cc2cc(C3OC(C)C(O)C(O)C3O)ccc2Cl)cc1 (stereo not drawn) [drawing 309]
hSGLT2
  IC50: 0.67 nM
  Seletivity IC50 (hSGLT1)/IC50 (hSGLT2): 374
hSGLT1
  IC50: 251 nM

## CCOc1ccc(Cc2cc(C3OC(C)C(O)C(O)C3O)ccc2Cl)cc1 [cocrystal of I-D1-6 and L-proline, cocrystal of (1S)-1-[4-chloro-3-(4-ethoxybenzyl)phenyl]-1,6-dideoxy-D-glucose (I-D1-6) and L-proline]
[2]; type 2 diabetes model SD rats, 6 mg/kg intragastrically, glucose 2 g/kg at 0.5 h, urine 0-12 h
  urine glucose production: 912 mg urine glucose/200 g body weight
hSGLT2; Table 4, cocrystal prepared in Example 138
  Selectivity IC50 (hSGLT1)/IC50 (hSGLT2): 375
[4]
  storage stability (in words): good storage stability
[4]; listed as cocrystal
  storage stability (in words): better storage stability

## COc1ccc(Cc2cc(C3OC(C)C(O)C(O)C3O)ccc2Cl)cc1 (stereo not drawn) [drawing 308]
hSGLT2
  IC50: 3.3 nM
  Seletivity IC50 (hSGLT1)/IC50 (hSGLT2): 26
hSGLT1
  IC50: 86 nM

## CCc1ccc(Cc2c(Cl)ccc3c2COC32OC(CO)CC(O)C2O)cc1 (stereo not drawn) [drawing 298]
Mice
  Behaviors after administration with the compound to be tested (deaths): 5 dead

## Cc1ccc(C2OC(CO)C(O)C(O)C2O)cc1Cc1ccc(-c2ccc(F)cc2)s1 (stereo not drawn) [drawing 275]
Mice
  Behaviors after administration with the compound to be tested (deaths): 9 dead

## CCc1ccc(Cc2c(Cl)ccc3c2COC32CC(O)CC(CO)O2)cc1 (stereo not drawn) [drawing 296]
Mice
  Behaviors after administration with the compound to be tested (deaths): 1 dead

## CCOc1ccc(Cc2cc(C3SC(C)C(O)C(O)C3O)c(OC)cc2C)cc1 (stereo not drawn) [drawing 302]
Mice
  Behaviors after administration with the compound to be tested (deaths): 4 dead

## OCC1CCC(O)C(c2ccc(Cl)c(Cc3ccc(O[C@H]4CCOC4)cc3)c2)O1 (stereo partly drawn) [drawing 306]
Mice
  Behaviors after administration with the compound to be tested (deaths): 2 dead

## CCOc1ccc(Cc2cc(C3OC(CO)C(O)CC3O)ccc2Cl)cc1 (stereo not drawn) [drawing 280]
Mice
  Behaviors after administration with the compound to be tested (deaths): 3 dead

## CCOc1ccc(Cc2cc(C3SC(CO)C(O)CC3O)c(OC)cc2C)cc1 (stereo not drawn) [drawing 300]
Mice
  Behaviors after administration with the compound to be tested (deaths): 0 dead

## OCC1OC(c2ccc(F)c(Cc3cc4ccccc4s3)c2)C(O)CC1O (stereo not drawn) [drawing 283]
Mice
  Behaviors after administration with the compound to be tested (deaths): 0 dead

## CCOc1ccc(Cc2cc(C3OC(CO)CC(O)C3O)ccc2Cl)cc1 (stereo not drawn) [drawing 269]
Mice
  Behaviors after administration with the compound to be tested (deaths): 2 dead

## CCOc1ccc(Cc2cc([C@]34C[C@@H](O)[C@H](O)[C@](CO)(CO3)O4)ccc2Cl)cc1 [drawing 303]
Mice
  Behaviors after administration with the compound to be tested (deaths): 2 dead

## CC1OC(c2ccc(Cl)c(Cc3ccc(O[C@H]4CCOC4)cc3)c2)C(O)C(O)C1O (stereo partly drawn) [drawing 286]
Mice
  Behaviors after administration with the compound to be tested (deaths): 1 dead

## CCCOc1ccc(Cc2cc(C3OC(C)C(O)C(O)C3O)ccc2Cl)cc1 (stereo not drawn) [drawing 268]
Mice
  Behaviors after administration with the compound to be tested (deaths): 6 dead

## CCOc1ccc(Cc2cc(C3OC(C)C(O)C(O)C3O)ccc2Cl)cc1 (stereo not drawn) [drawing 279]
Mice
  Behaviors after administration with the compound to be tested (deaths): 1 dead

## OCC1OC(c2ccc(F)c(Cc3cc4ccccc4s3)c2)CC(O)C1O (stereo not drawn) [drawing 285]
Mice
  Behaviors after administration with the compound to be tested (deaths): 3 dead

## OCC1OC(c2ccc(Cl)c(Cc3ccc(O[C@H]4CCOC4)cc3)c2)C(O)C(O)C1O (stereo partly drawn) [drawing 276]
Mice
  Behaviors after administration with the compound to be tested (deaths): 7 dead

## CCOc1ccc(Cc2cc([C@]34OC[C@](C)(O3)[C@@H](O)[C@H](O)[C@H]4O)ccc2Cl)cc1 [drawing 292]
Mice
  Behaviors after administration with the compound to be tested (deaths): 3 dead

Source: patent US9505734B2, “Phenyl C-glucoside derivative containing deoxyglucose structure, preparation method and use thereof” (Tianjin Institute of Pharmaceutical Research, priority 2012, dated 2016)
